# Experimental data: PubChem BioAssay AID182 (DTP/NCI, 2004)
# Values joined by “and” are separate entries in the source; they are usually repeats but may differ in a detail not shown here. Equal entries are not always repeated. Inconclusive results and toxic doses are left out. Starred links: 1 amine or outer side, 2 acyl side, 3 side chain; linkers in the order of their positions; H or OH if unused. Positions of bridges follow the written chain, without caps; N, C: chain ends. Non-standard residues stand in square brackets, D forms with d. Residues, ends and D or L forms follow the SMILES beside them. Chains are numbered I, II in the order given. Actinocin(9to1) = Cc1c2oc3c(C)ccc(C(=O)[*:1])c3nc-2c(C(=O)[*:2])c(N)c1=O; aThr = C[C@H](O)[C@H](N)C(=O)O; NMeV = CN[CH](C(=O)O)C(C)C; Aze = O=C(O)[CH]1CCN1; Sar = CNCC(=O)O
# Tested on: BDF1 mice, P388/ADR leukemia ip, median survival T/C
# Experiment: NCI In Vivo Anticancer Drug Screen. Data for tumor model P388 Leukemia resistant to Adriamycin; NSC 123127, Developed at Scr 06 and 41 (intraperitoneal) in B6D2F1 (BDF1) mice
# Settings: endpoint: median survival time, higher = longer survival
# Description: The antitumor activity of compounds was measured in mice bearing transplantable tumors. Survival or tumor size were measured and the results are expressed as the measurement made in the treated group (T) divided by the measurement made in the vehicle treated control group (C). The tumor model used in this assay is P388 Leukemia resistant to Adriamycin; NSC 123127, Developed at Scr 06 and 41 (intraperitoneal) in B6D2F1 (BDF1) mice
compound,measurement,setting,value
CCC1(O)CC2CN(CCc3c([nH]c4ccccc34)C(C(=O)OC)(c3cc4c(cc3OC)N(C)C3C(O)(C(=O)NCCSSCCNC(=O)C5(O)C(O)C6(CC)C=CCN7CCC8(c9cc(C%10(C(=O)OC)CC%11CN(CCc%12c%10[nH]c%10ccccc%12%10)CC(O)(CC)C%11)c(OC)cc9N(C)C58)C76)C(O)C5(CC)C=CCN6CCC43C65)C2)C1 (stereo not given),T/C,"dose: 432.0 micrograms/kg/injection, schedule: Q04DX003 (ip), vehicle: saline",111 % of control
same,T/C,"dose: 720.0 micrograms/kg/injection, schedule: Q04DX003 (ip), vehicle: saline",124 % of control
same,T/C,"dose: 2000.0 micrograms/kg/injection, schedule: Q04DX003 (ip), vehicle: saline",116 % of control
"Cc1c2oc3c(C)ccc(C(=O)N[C@@H]4C(=O)N[C@H](C(C)C)C(=O)N5CCC[C@H]5C(=O)N(C)CC(=O)N(C)[C@@H](C(C)C)C(=O)O[C@H]4C)c3nc-2c(C(=O)N[C@@H]2C(=O)N[C@H](C(C)C)C(=O)N3CCC[C@H]3C(=O)N(C)CC(=O)N(C)[C@@H](C(C)C)C(=O)O[C@H]2C)c(N)c1=O (I: [aThr][dV]P[Sar][NMeV] / II: [aThr][dV]P[Sar][NMeV]; ester I:1-I:C, II:1-II:C; linker I:N-II:N via Actinocin(9to1))",T/C,"dose: 0.3 mg/kg/injection, schedule: Q04DX003 (ip), vehicle: saline",173 % of control
same,T/C,"dose: 108.0 micrograms/kg/injection, schedule: Q04DX003 (ip), vehicle: saline + alcohol",111 % of control and 201 % of control
same,T/C,"dose: 180.0 micrograms/kg/injection, schedule: Q04DX003 (ip), vehicle: saline + alcohol",118 % of control
same,T/C,"dose: 300.0 micrograms/kg/injection, schedule: Q04DX003 (ip), vehicle: saline + alcohol",116 % of control and 117 % of control
same,T/C,"dose: 500.0 micrograms/kg/injection, schedule: Q04DX003 (ip), vehicle: saline + alcohol",88 % of control
"Cc1c2oc3c(C)ccc(C(=O)NC4C(=O)NC(C(C)C)C(=O)N5CCC5C(=O)N(C)CC(=O)N(C)C(C(C)C)C(=O)OC4C)c3nc-2c(C(=O)NC2C(=O)NC(C(C)C)C(=O)N3CCC3C(=O)N(C)CC(=O)N(C)C(C(C)C)C(=O)OC2C)c(N)c1=O (stereo not given) (I: TV[Aze][Sar][NMeV] / II: TV[Aze][Sar][NMeV]; ester I:1-I:C, II:1-II:C; linker I:N-II:N via Actinocin(9to1); configuration not given here)",T/C,"dose: 216.0 micrograms/kg/injection, schedule: Q01DX003 (ip), vehicle: saline + alcohol",110 % of control
same,T/C,"dose: 360.0 micrograms/kg/injection, schedule: Q01DX003 (ip), vehicle: saline + alcohol",103 % of control
same,T/C,"dose: 600.0 micrograms/kg/injection, schedule: Q01DX003 (ip), vehicle: saline + alcohol",104 % of control
same,T/C,"dose: 1000.0 micrograms/kg/injection, schedule: Q01DX003 (ip), vehicle: saline + alcohol",86 % of control
CC[C@](O)(C(=O)O)c1cc2n(c(=O)c1CO)Cc1cc3ccccc3nc1-2,T/C,"dose: 18.0 mg/kg/injection, schedule: Q04DX003 (ip), vehicle: saline",183 % of control
same,T/C,"dose: 30.0 mg/kg/injection, schedule: Q04DX003 (ip), vehicle: saline",209 % of control
same,T/C,"dose: 50.0 mg/kg/injection, schedule: Q04DX003 (ip), vehicle: saline",206 % of control
COc1cc(O)c2c(c1)C(=O)c1cc3c(c(O)c1C2=O)C(OC1OC(C)C(O)C(O)C1OC)C(OC)C(C)(O)C3=O (stereo not given),T/C,"dose: 25.9 mg/kg/injection, schedule: Q01DX009 (ip), vehicle: Klucel (hydroxypropylcellulose) (HPC)",96 % of control
same,T/C,"dose: 43.2 mg/kg/injection, schedule: Q01DX009 (ip), vehicle: Klucel (hydroxypropylcellulose) (HPC)",96 % of control
same,T/C,"dose: 72.0 mg/kg/injection, schedule: Q01DX009 (ip), vehicle: Klucel (hydroxypropylcellulose) (HPC)",99 % of control
same,T/C,"dose: 108.0 mg/kg/injection, schedule: Q04DX003 (ip), vehicle: Klucel (hydroxypropylcellulose) (HPC)",100 % of control
same,T/C,"dose: 120.0 mg/kg/injection, schedule: Q01DX009 (ip), vehicle: Klucel (hydroxypropylcellulose) (HPC)",103 % of control
same,T/C,"dose: 180.0 mg/kg/injection, schedule: Q04DX003 (ip), vehicle: Klucel (hydroxypropylcellulose) (HPC)",105 % of control
CC1OC(OC2CC(O)(C(=O)CO)Cc3c(O)c4c(c(O)c32)C(=O)c2ccccc2C4=O)CC(N)C1O (stereo not given),T/C,"dose: 216.0 micrograms/kg/injection, schedule: Q04DX003 (ip), vehicle: water",100 % of control
same,T/C,"dose: 360.0 micrograms/kg/injection, schedule: Q04DX003 (ip), vehicle: water",102 % of control
same,T/C,"dose: 600.0 micrograms/kg/injection, schedule: Q04DX003 (ip), vehicle: water",101 % of control
same,T/C,"dose: 1000.0 micrograms/kg/injection, schedule: Q04DX003 (ip), vehicle: water",99 % of control
O=NN(CCCl)C(=O)NCCCl,T/C,"dose: 13.0 mg/kg/injection, schedule: Q01DX001 (ip), vehicle: saline + alcohol",169 % of control
same,T/C,"dose: 21.6 mg/kg/injection, schedule: Q01DX001 (ip), vehicle: saline + alcohol",499 % of control
same,T/C,"dose: 36.0 mg/kg/injection, schedule: Q01DX001 (ip), vehicle: saline + alcohol",499 % of control
COc1cccc2c1C(=O)c1c(O)c3c(c(O)c1C2=O)C[C@@](O)(/C(C)=N/NC(=O)c1ccccc1)C[C@@H]3OC1CC(N)C(O)C(C)O1 (stereo not given in full),T/C,"dose: 6.5 mg/kg/injection, schedule: Q04DX003 (ip), vehicle: water",107 % of control
same,T/C,"dose: 10.8 mg/kg/injection, schedule: Q04DX003 (ip), vehicle: water",115 % of control
same,T/C,"dose: 18.0 mg/kg/injection, schedule: Q04DX003 (ip), vehicle: water",105 % of control
COC1=C(N)C(=O)c2nc(-c3nc(C(=O)O)c(C)c(-c4ccc(OC)c(OC)c4O)c3N)ccc2C1=O,T/C,"dose: 144.0 micrograms/kg/injection, schedule: Q04DX003 (ip), vehicle: alkali diluted with saline",120 % of control
same,T/C,"dose: 240.0 micrograms/kg/injection, schedule: Q04DX003 (ip), vehicle: alkali diluted with saline",120 % of control
same,T/C,"dose: 400.0 micrograms/kg/injection, schedule: Q04DX003 (ip), vehicle: alkali diluted with saline",122 % of control
same,T/C,"dose: 667.0 micrograms/kg/injection, schedule: Q04DX003 (ip), vehicle: alkali diluted with saline",121 % of control
